Test results reported in patent US20250214991A1 (Oncopia Therapeutics, Inc. d/b/a/ SK Life Science Labs, priority 2022, published 2025).

Key:
[1] = target: CRBN/DDB1 (Homo sapiens (Human), UniProt Q96SW2); experiment: IC50 measurements for binding to CRBN/DDB1 (HTRF); conditions: His tagged CRBN+DDB, Cy5-labeled Thalidomide probe, one hour
Summary of the method: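 Serially diluted compounds compete with a Cy5-labeled thalidomide tracer (60 nM) for His-tagged CRBN-DDB1 (2 nM), detected via anti-6His Tb cryptate (0.4 nM); buffer HEPES pH 7.5 with TCEP, Brij-35, NaCl, BSA. One-hour room-temperature incubation, HTRF signal read, IC50 by four-parameter curve.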

[2] = target: T1, IKZF2 (Homo sapiens (Human), UniProt Q96SW2+Q9UKS7); experiment: In vitro IKZF2 FACS Assay in Jurkat cells; assay type: cell-based; conditions: 24 hrs; for DC50: half maximal degradation concentration; for Dmax: maximal degradation percentage
Description: In vitro IKZF2 FACS Assay
DC50, A: <1 nM; B: 1-10 nM; C: 10-100 nM; D: 100-1000 nM; E: >1000 nM. Dmax, A: >80%; B: 60-80%; C: 40-60%; D: 20-40%; E: <20%.

[3] = target: T1, IKZF2; experiment: In vitro IKZF2 HiBit Assay (HEK293T Flp-in-HiBiT cells); assay type: cell-based; conditions: HEK293T Flp-in-HiBiT cells, 6 hrs incubation; for DC50: read-out: IKZF2 HiBit DC50; for Dmax: HEK-293T, read-out: IKZF2 HiBit Dmax (%)
Summary of the method: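 Remaining tagged Helios was read as lytic HiBiT/LgBiT luminescence normalized to DMSO, yielding binned DC50 and Dmax values. Treatment ran 6 h, with compounds at 11 three-fold doses diluted from 1 mM and 0.1% final DMSO. The cells were HEK293T Flp-in with CRISPR knock-in of HiBiT at the IKZF2 N-terminus.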

[4] = target: IKZF1 (Homo sapiens (Human), UniProt Q13422+Q96SW2); experiment: In vitro IKZF1 HiBit Assay (HEK293T Flp-in-HiBiT-IKZF1 stable cell line); assay type: cell-based; conditions: HEK293T Flp-in-HiBiT-IKZF1 stable cell line, 6 hrs incubation; for DC50: read-out: IKZF1 HiBit DC50; for Dmax: HEK-293T, read-out: IKZF1 HiBit Dmax (%)
Summary of the method: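 Degradation was measured as loss of luminescence from the HiBiT-IKZF1 tag after 6 h compound treatment, with 0.1% final DMSO, in stable HEK293T Flp-in cells. Values were normalized to DMSO, giving the 50% degradation concentration and the maximal degradation range.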

Sequence of CRBN/DDB1 (Q96SW2 whole entry, species assumed): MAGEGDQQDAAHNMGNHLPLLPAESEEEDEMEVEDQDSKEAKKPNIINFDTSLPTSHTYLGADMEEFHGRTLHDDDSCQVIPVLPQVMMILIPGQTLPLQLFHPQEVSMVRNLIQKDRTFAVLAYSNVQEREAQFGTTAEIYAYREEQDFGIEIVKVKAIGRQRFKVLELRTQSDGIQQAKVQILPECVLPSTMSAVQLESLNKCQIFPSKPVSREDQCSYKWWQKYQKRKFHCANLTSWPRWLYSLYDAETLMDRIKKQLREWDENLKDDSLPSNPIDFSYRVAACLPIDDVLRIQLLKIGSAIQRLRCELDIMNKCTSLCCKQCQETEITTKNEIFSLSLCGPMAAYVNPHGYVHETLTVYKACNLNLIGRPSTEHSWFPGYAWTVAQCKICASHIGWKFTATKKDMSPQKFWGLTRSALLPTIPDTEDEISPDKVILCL
Sequence of CRBN/DDB1 (Q16531 whole entry partner, species assumed): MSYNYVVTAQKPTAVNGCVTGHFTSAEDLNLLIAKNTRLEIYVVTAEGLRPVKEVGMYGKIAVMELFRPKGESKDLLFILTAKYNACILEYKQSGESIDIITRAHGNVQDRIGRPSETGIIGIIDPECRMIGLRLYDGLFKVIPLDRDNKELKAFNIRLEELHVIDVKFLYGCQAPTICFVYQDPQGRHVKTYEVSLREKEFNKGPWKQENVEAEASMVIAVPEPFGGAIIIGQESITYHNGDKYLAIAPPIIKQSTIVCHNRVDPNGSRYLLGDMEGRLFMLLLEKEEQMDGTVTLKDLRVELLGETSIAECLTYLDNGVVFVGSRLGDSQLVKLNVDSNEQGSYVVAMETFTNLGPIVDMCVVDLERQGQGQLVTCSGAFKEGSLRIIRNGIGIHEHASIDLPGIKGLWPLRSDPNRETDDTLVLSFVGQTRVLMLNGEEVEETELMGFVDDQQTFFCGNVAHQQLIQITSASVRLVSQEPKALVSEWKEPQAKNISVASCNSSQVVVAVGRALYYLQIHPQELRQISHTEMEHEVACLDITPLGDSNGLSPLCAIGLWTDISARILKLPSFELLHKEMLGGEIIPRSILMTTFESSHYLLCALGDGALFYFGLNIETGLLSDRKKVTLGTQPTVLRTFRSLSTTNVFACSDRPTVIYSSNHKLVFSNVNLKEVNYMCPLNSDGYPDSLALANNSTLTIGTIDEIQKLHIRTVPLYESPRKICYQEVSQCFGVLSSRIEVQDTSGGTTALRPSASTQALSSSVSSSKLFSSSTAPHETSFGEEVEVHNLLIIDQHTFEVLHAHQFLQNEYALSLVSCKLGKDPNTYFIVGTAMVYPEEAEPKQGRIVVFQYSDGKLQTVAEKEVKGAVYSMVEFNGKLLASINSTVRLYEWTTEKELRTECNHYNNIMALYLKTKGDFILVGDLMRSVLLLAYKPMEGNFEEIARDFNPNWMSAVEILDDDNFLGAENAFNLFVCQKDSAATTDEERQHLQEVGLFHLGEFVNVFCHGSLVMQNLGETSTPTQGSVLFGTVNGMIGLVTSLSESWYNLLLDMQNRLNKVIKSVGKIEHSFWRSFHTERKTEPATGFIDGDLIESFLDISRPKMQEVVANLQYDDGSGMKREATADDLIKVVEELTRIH
T1 sequence (Q9UKS7 whole entry): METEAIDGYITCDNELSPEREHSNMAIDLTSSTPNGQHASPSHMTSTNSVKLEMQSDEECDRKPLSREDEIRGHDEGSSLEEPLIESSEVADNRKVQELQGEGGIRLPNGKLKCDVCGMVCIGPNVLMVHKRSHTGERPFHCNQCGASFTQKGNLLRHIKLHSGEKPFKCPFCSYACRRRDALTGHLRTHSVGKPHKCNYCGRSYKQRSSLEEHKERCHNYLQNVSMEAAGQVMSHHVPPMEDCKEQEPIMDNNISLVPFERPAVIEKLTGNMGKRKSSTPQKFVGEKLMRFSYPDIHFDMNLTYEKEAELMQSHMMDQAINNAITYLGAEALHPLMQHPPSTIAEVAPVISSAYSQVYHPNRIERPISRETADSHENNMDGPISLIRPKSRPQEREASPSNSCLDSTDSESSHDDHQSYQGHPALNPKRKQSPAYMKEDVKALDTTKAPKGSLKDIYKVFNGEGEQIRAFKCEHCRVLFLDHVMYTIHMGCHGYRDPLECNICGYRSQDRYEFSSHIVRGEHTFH
T1 sequence (Q96SW2 whole entry): as the sequence (Q96SW2 whole entry, species assumed) above
T1 sequence (Q16531 2-1140 partner): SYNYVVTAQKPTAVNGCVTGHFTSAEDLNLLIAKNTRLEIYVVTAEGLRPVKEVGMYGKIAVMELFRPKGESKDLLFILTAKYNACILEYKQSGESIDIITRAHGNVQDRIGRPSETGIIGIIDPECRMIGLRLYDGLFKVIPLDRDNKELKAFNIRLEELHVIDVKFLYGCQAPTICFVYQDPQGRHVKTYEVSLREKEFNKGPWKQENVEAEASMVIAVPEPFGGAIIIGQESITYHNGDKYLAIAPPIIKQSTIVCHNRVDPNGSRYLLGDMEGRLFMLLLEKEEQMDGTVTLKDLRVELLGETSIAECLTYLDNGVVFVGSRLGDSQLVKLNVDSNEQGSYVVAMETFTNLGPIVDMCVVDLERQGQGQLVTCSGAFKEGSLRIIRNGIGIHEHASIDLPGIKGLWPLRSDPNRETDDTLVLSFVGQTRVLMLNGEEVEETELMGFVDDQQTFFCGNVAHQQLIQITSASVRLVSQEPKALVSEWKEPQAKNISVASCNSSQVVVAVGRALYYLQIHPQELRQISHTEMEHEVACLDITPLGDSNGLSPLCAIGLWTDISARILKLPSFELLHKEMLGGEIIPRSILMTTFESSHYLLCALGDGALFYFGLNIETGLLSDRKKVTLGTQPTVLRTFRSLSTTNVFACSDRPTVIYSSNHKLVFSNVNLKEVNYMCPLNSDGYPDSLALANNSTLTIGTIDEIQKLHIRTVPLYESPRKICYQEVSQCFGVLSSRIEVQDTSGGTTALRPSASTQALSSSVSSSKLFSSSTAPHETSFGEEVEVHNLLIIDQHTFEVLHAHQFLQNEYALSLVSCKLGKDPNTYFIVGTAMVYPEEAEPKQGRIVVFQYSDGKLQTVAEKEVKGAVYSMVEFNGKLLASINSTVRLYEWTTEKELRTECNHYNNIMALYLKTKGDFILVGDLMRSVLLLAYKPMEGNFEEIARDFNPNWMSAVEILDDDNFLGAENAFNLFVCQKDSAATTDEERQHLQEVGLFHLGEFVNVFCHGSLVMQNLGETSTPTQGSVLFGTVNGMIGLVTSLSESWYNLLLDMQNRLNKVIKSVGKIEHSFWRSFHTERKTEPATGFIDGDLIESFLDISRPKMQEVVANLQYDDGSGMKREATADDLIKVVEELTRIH
Sequence of IKZF1 (Q13422 whole entry): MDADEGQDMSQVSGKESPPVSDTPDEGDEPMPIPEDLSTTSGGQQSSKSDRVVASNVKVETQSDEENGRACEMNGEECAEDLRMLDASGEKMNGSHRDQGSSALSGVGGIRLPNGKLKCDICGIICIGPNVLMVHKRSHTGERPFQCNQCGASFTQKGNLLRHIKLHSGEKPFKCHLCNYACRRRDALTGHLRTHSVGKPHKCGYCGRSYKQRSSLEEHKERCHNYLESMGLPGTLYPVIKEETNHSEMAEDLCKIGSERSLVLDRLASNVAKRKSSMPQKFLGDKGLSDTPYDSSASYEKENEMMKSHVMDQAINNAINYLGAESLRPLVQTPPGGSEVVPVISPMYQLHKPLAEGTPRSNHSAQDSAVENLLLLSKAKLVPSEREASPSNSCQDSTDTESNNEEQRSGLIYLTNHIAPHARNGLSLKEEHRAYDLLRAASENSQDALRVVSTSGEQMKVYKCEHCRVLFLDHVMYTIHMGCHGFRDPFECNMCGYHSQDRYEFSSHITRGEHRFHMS
Sequence of IKZF1 (Q96SW2 whole entry): as the sequence (Q96SW2 whole entry, species assumed) above
Sequence of IKZF1 (Q16531 2-1140 partner): as the sequence (Q16531 2-1140 partner) above

| DC50 [2] [nM] | Dmax [2] [%] | DC50 [3] [nM] | Dmax [3] [%] | DC50 [4] [nM] | Dmax [4] [%] | Compound | IC50 [1] [nM] |
| --- | --- | --- | --- | --- | --- | --- | --- |
| 10 to 100 | 40 to 60 | – | – | – | – | C[C@H](NCc1cc(-c2ccc3c(c2)CN(C2CCC(=O)NC2=O)C3=O)n2cncc2c1)c1ccccc1 (single isomer, unassigned) [Example 14, 3-(1-oxo-5-(7-((((S*)-1-phenylethyl)amino)methyl)imidazo[1,5-a]pyridin-5-yl)isoindolin-2-yl) piperidine-2,6-dione] | 100 to 500 |
| 10 to 100 | 40 to 60 | – | – | – | – | C[C@@H](NCc1cc(-c2ccc3c(c2)CN(C2CCC(=O)NC2=O)C3=O)n2cncc2c1)c1ccccc1 (single isomer, unassigned) [Example 16, 3-(1-oxo-5-(7-((((R*)-1-phenylethyl)amino)methyl)imidazo[1,5-a]pyridin-5-yl)isoindolin-2-yl) piperidine-2,6-dione] | 500 to 1000 |
| 1 to 10 | > 80 | < 1 | > 80 | > 10000 | < 20 | Cn1ccc2c(CN3CCCC3)c(Cl)c(-c3ccc4c(c3F)CN(C3CCC(=O)NC3=O)C4=O)nc21 (stereo not drawn) [Example 277, 3-(5-(5-chloro-1-methyl-4-(pyrrolidin-1-ylmethyl)-1H-pyrrolo[2,3-b]pyridin-6-yl)-4-fluoro-1-oxoisoindolin-2-yl) piperidine-2,6-dione] | – |
| 10 to 100 | > 80 | 1 to 10 | > 80 | 1000 to 10000 | 20 to 40 | CC(C)Nc1n[nH]c2c(CN3CCC(F)CC3)cc(-c3ccc4c(c3F)CN(C3CCC(=O)NC3=O)C4=O)nc12 (stereo not drawn) [Example 282, 3-(4-fluoro-5-(7-((4-fluoropiperidin-1-yl)methyl)-3-(isopropylamino)-1H-pyrazolo[4,3-b]pyridin-5-yl)-1-oxoisoindolin-2-yl) piperidine-2,6-dione] | – |
| 1 to 10 | > 80 | 1 to 10 | > 80 | > 10000 | < 20 | COC1CCN(Cc2cc(-c3ccc4c(c3F)CN(C3CCC(=O)NC3=O)C4=O)nc3c(NC(C)C)n[nH]c23)CC1 (stereo not drawn) [Example 283, 3-(4-fluoro-5-(3-(isopropylamino)-7-((4-methoxypiperidin-1-yl)methyl)-1H-pyrazolo[4,3-b]pyridin-5-yl)-1-oxoisoindolin-2-yl) piperidine-2,6-dione] | – |
| 10 to 100 | 60 to 80 | 1 to 10 | > 80 | 10 to 100 | 20 to 40 | CC(C)Nc1n[nH]c2c(CN3CCC4(CC3)COC4)cc(-c3ccc4c(c3F)CN(C3CCC(=O)NC3=O)C4=O)nc12 (stereo not drawn) [Example 284, 3-(5-(7-((2-oxa-7-azaspiro[3.5]nonan-7-yl)methyl)-3-(isopropylamino)-1H-pyrazolo[4,3-b]pyridin-5-yl)-4-fluoro-1-oxoisoindolin-2-yl) piperidine-2,6-dione] | – |
| 10 to 100 | 60 to 80 | 1 to 10 | > 80 | > 10000 | < 20 | CC(C)Nc1n[nH]c2c(CN3CC4COCC4C3)cc(-c3ccc4c(c3F)CN(C3CCC(=O)NC3=O)C4=O)nc12 (stereo not drawn) [Example 288, 3-(4-fluoro-5-(3-(isopropylamino)-7-((tetrahydro-1H-furo[3,4-c]pyrrol-5 (3H)-yl)methyl)-1H-pyrazolo[4,3-b]pyridin-5-yl)-1-oxoisoindolin-2-yl) piperidine-2,6-dione] | – |
| 1 to 10 | > 80 | 1 to 10 | > 80 | 10 to 100 | 40 to 60 | CC(C)Nc1n[nH]c2c(CN3CC4(CCOCC4)C3)cc(-c3ccc4c(c3F)CN(C3CCC(=O)NC3=O)C4=O)nc12 (stereo not drawn) [Example 289, 3-(5-(7-((7-oxa-2-azaspiro[3.5]nonan-2-yl)methyl)-3-(isopropylamino)-1H-pyrazolo[4,3-b]pyridin-5-yl)-4-fluoro-1-oxoisoindolin-2-yl) piperidine-2,6-dione] | – |
| 10 to 100 | 60 to 80 | 1 to 10 | 60 to 80 | > 10000 | < 20 | CC(C)Nc1n[nH]c2c(CN3CCC(C(F)(F)F)CC3)cc(-c3ccc4c(c3F)CN(C3CCC(=O)NC3=O)C4=O)nc12 (stereo not drawn) [Example 290, 3-(4-fluoro-5-(3-(isopropylamino)-7-((4-(trifluoromethyl)piperidin-1-yl)methyl)-2H-pyrazolo[4,3-b]pyridin-5-yl)-1-oxoisoindolin-2-yl) piperidine-2,6-dione] | – |
| < 1 | > 80 | < 1 | > 80 | 10 to 100 | 40 to 60 | CCNc1n[nH]c2c(CN3CCCC3)cc(-c3ccc4c(c3F)CN(C3CCC(=O)NC3=O)C4=O)nc12 (stereo not drawn) [Example 291, 3-(5-(3-(ethylamino)-7-(pyrrolidin-1-ylmethyl)-1H-pyrazolo[4,3-b]pyridin-5-yl)-4-fluoro-1-oxoisoindolin-2-yl) piperidine-2,6-dione] | – |
| 1 to 10 | > 80 | 1 to 10 | > 80 | 10 to 100 | 20 to 40 | CC1c2cc(-c3cc(CN4CCCC4)c4ccn(C5CS(=O)(=O)C5)c4n3)ccc2C(=O)N1C1CCC(=O)NC1=O (stereo not drawn) [Example 292, 3-(5-(1-(1,1-dioxidothietan-3-yl)-4-(pyrrolidin-1-ylmethyl)-1H-pyrrolo[2,3-b]pyridin-6-yl)-3-methyl-1-oxoisoindolin-2-yl) piperidine-2,6-dione] | – |
| 1 to 10 | > 80 | 1 to 10 | > 80 | > 10000 | < 20 | CC(C)Nc1n[nH]c2c(CN3CCCC3)cc(-c3ccc4c(c3)C(C)N(C3CCC(=O)NC3=O)C4=O)nc12 (stereo not drawn) [Example 293, 3-(5-(3-(isopropylamino)-7-(pyrrolidin-1-ylmethyl)-1H-pyrazolo[4,3-b]pyridin-5-yl)-3-methyl-1-oxoisoindolin-2-vl) piperidine-2,6-dione] | – |
| 1 to 10 | > 80 | < 1 | > 80 | 10 to 100 | 40 to 60 | O=C1CCC(N2Cc3c(ccc(-c4cc(CN5CCCC5)c5[nH]nc(NC6CCC6)c5n4)c3F)C2=O)C(=O)N1 (stereo not drawn) [Example 295, 1.3-(5-(3-(cyclobutylamino)-7-(pyrrolidin-1-ylmethyl)-1H-pyrazolo[4,3-b]pyridin-5-yl)-4-fluoro-1-oxoisoindolin-2-yl) piperidine-2,6-dione] | – |
| 1 to 10 | > 80 | 1 to 10 | > 80 | 10 to 100 | 60 to 80 | Nc1[nH]nc2c(CN3CCCC3)cc(-c3ccc4c(c3F)CN(C3CCC(=O)NC3=O)C4=O)nc12 (stereo not drawn) [Example 318, 3-(5-(3-amino-7-(pyrrolidin-1-ylmethyl)-2H-pyrazolo[4,3-b]pyridin-5-yl)-4-fluoro-1-oxoisoindolin-2-yl) piperidine-2,6-dione] | – |

| Compound | DC50 [2] [nM] | Dmax [2] [%] | DC50 [3] [nM] | Dmax [3] [%] | DC50 [4] [nM] | Dmax [4] [%] | IC50 [1] [nM] |
| --- | --- | --- | --- | --- | --- | --- | --- |
| C[C@@H](c1ccccc1)N(C)Cc1cc(-c2ccc3c(c2)CN(C2CCC(=O)NC2=O)C3=O)n2cncc2c1 (single isomer, unassigned) [Example 15, 3-(5-(7-((methyl ((S*)-1-phenylethyl)amino)methyl)imidazo[1,5-a]pyridin-5-yl)-1-oxoisoindolin-2-yl) piperidine-2,6-dione] | 10 to 100 | 20 to 40 | – | – | – | – | 1000 to 5000 |
| C[C@H](c1ccccc1)N(C)Cc1cc(-c2ccc3c(c2)CN(C2CCC(=O)NC2=O)C3=O)n2cncc2c1 (single isomer, unassigned) [Example 17, 3-(5-(7-((methyl ((R*)-1-phenylethyl)amino)methyl)imidazo[1,5-a]pyridin-5-yl)-1-oxoisoindolin-2-yl) piperidine-2,6-dione] | 10 to 100 | 20 to 40 | – | – | – | – | 1000 to 5000 |
| O=C1CCC(N2Cc3cc(-c4cc(CN5CCC5)cc5cncn45)ccc3C2=O)C(=O)N1 (stereo not drawn) [Example 2, 3-(5-(7-(azetidin-1-ylmethyl)imidazo[1,5-a]pyridin-5-yl)-1-oxoisoindolin-2-yl) piperidine-2,6-dione] | 100 to 1000 | 40 to 60 | – | – | – | – | 100 to 500 |
| CO[C@H]1C[C@H](Oc2ccnc3c(CN4CCCC4)cc(-c4ccc5c(c4)CN(C4CCC(=O)NC4=O)C5=O)nc23)C1 (stereo partly drawn) [Example 280, 3-(5-(8-((1r,3r)-3-methoxycyclobutoxy)-4-(pyrrolidin-1-ylmethyl)-1,5-naphthyridin-2-yl)-1-oxoisoindolin-2-yl) piperidine-2,6-dione] | 10 to 100 | 60 to 80 | 10 to 100 | 60 to 80 | > 10000 | < 20 | – |
